# Laboratory results published in patent publication US20040248913A1, “(Pyridinyl and pyrimidyl) trienoic acid derivatives as retinoid x receptor modulators” (priority 2001, published 2004).
# Key:
# [1] = system: RXRα:RAR heterodimer; experiment: RXR:RAR heterodimer cotransfection assay in CV-1 cells; assay type: cell-based, human; settings: alone
# Description: In the co-transfection assay, cloned cDNA for one or more IRs (e.g., human RARα, RXRα, or PPARγ), alone or in combination (i.e. for heterodimer assays) under the control of a constitutive promoter (e.g., the SV 40, RSV or CMV promoter) is introduced by transfection (a procedure to introduce exogenous genes into cells) into a background cell substantially devoid of endogenous IRs. These introduced gene(s) direct the recipient cells to make the IR protein(s) of interest. A further gene is also introduced (co-transfected) into the same cells in conjunction with the IR gene(s). This further gene, comprising the cDNA for a reporter protein, such as firefly luciferase (LUC), controlled by an appropriate hormone responsive promoter containing a hormone response element (HRE). This reporter plasmid functions as a reporter for the transcriptional-modulating activity of the target IR(s). Thus, the reporter acts as a surrogate for the products (mRNA then protein) normally expressed by a gene under control of the target receptor(s) and their native hormone(s).
# Compounds of the present invention were also tested for the ability to synergize with an RAR or PPARγ agonist in the context of an RXR heterodimer. […] Efficacy of the compounds of the present invention in the agonist and synergy assays was calculated as the maximum response obtained over the range of the dose response curve relative to the maximum response obtained by the reference agonist. Antagonist efficacy was determined as a function (%) of maximal inhibition.
# RAR suppresses RXR ligand binding and transactivation of typical RXR agonists via allosteric interactions. […] However, when RAR is occupied, typical RXR agonists activate the heterodimer. […] To examine the effects of the compounds of the present invention on the transcriptional properties of the RXR:RAR heterodimer, a heterodimer cotransfection assay as described above was employed.
# [2] = system: mice transgenic for the human apolipoprotein A-I gene; experiment: Transgenic mice carrying the human apo A-I gene; assay type: in vivo, mouse
# Description: Mice transgenic for the human apolipoprotein A-I gene (obtained from Jackson Laboratory) are used to evaluate PPARγ mediated effects on high density lipoprotein (HDL) cholesterol. The mice are handled as described above for db/db mice, except that they are fed Purina 5001.
# [3] = system: rodent models of NIDDM; experiment: Rodent models of NIDDM / Type II Diabetes; assay type: in vivo
# Description: (§1) Rodents that are genetically defective in the leptin pathway are commonly used as animal models of non-insulin dependant diabetes mellitus (NIDDM). db/db mice and ZDF rats develop frank diabetes that progresses to include β-cell failure and the accompanying precipitous drop in plasma insulin levels. […] All three rodent models were used to examine the efficacy of oral dosing with compounds of the invention on diabetes, insulin sensitivity, food consumption and body weight gain.
# (§2) Mice (obtained from Jackson Laboratory), ZDF rats (obtained from Genetic Models Inc.) and fa/fa rats (obtained from either Charles River, or Harlan) are maintained on 12-hour light/dark cycle. Mice (age 28-42 days) are caged in groups of 5-6. Rats (age 7 weeks) are housed individually. All animals are allowed ad libitum access to water and food (Purina 5015 for mice and 5008 for rats). Compounds are administered at the specified doses by oral gavage on the morning of each day of any experiment. Blood samples are obtained 3 hours after dosing from fed animals under anesthesia and collected into heparinized capillary tubes from the tail vein.
# On the other hand, full antagonists have no effect on glucose, triglycerides or the thyroid status in these same model systems. We have identified a specific subset of rexinoids that maintain the desirable insulin sensitizing activity and eliminate both the suppression of the thyroid axis and triglyceride elevations. These compounds are heterodimer selective modulators of RXR activity. They bind to RXR with high affinity (generally Ki<50 nM) and produce potent synergistic activation of the RXR:PPARγ heterodimer. This synergistic activation of PPARγ in vitro is presumably a major determinant of the antidiabetic efficacy of compounds in vivo.
# [4] = system: db/db mice; experiment: db/db mice, daily oral gavage; assay type: in vivo, mouse; settings: 7 week old db/db mice
# Description: as §1, §2
smiles,measurement,setting,value
"C/C(=C\c1ccc(C(=O)O)cc1)c1ccc2c(c1)C(C)(C)CCC2(C)C [TTNPB, (E)-4-[2-(5,6,7,8-tetrahydro-5,5,8,8-tetramethyl-2-naphthalenyl)-1-propenyl]benzoic acid, reference compound]",RXR:RAR agonist activity / transactivation alone (in words),[1],strongly transactivate
Cc1cc2c(cc1C1(c3ccc(C(=O)O)cn3)CC1)C(C)(C)CCC2(C)C [LG100268],Triglycerides,[2],raises triglycerides
same,Blood glucose levels,[3],lower blood glucose levels
same,Insulin sensitizing activity,[3],efficacious insulin sensitizers
same,Thyroid hormone axis,[3],suppress the thyroid hormone axis
same,Triglycerides,[3],raise triglycerides
"CC1=C(/C=C/C(C)=C/C=C/C(C)=C/C(=O)O)C(C)(C)CCC1 [ATRA, all-trans retinoic acid, reference compound]",RXR:RAR agonist activity / transactivation alone (in words),[1],strongly transactivate
CN(C)C(=N)N=C(N)N [metformin],Plasma glucose,[4]; 300 mg/kg by daily oral gavage,lowers plasma glucose
same,Efficacy on plasma glucose over time,"[4]; 300 mg/kg daily, 3 weeks subsequent to first week",efficacy of metformin decreases
